This note sets out measurements from patent publication US9498438B2 (The University of Liverpool, priority 2011, dated 2016).

What all share (format): cell-based
A short description of data set [1]: ATP cell viability assay (CellTiter-Glo) cytotoxicity. The following applies: human, A-THP-1 (PMA-activated THP-1, macrophage like) cells. For orientation: In ATP-based viability assays light output follows the ATP content of the culture.
Procedure: Cells were then incubated at 37° C. and 5% CO2 for 7 days prior to use to allow differentiation from monocyte to macrophage like cells.
The same procedure was followed for each individual excipient (23 samples) with concentrations range of 1 μM to 1 M.
Prior to starting viability assays, all reagents were made fresh and in accordance to manufacturer's instructions and allowed to equilibrate to room temperature immediately before use. After 24 hours incubation, 96 well plates were removed from the incubator and the plate and its contents allowed too equilibrate to room temperature for approximately 30 minutes. After 30 minutes, 80 μl of media was aspirated from each individual well and 20 μl CellTiter-Glo® Reagent (Promega, UK) was added to the remaining media and cells. The contents were then mixed for 2 minutes on an orbital shaker to induce cell lysis. The plate was then further incubated at room temperature for 10 minutes to stabilise luminescent signal. Luminescence was then measured using a Tecan Genios plate reader (Tecan; Austria).
Assay in data set [2]: as above
The following applies: human, THP-1 (monocyte) cells.

Assay in data set [3]: as above
The following applies: human. The text has this:
HepG2 (hepatic) and Caco-2 (intestinal) cells were purchased from American Type Tissue Culture (ATCC; USA) and maintained in Dulbecco's modified eagle's medium (DMEM; Sigma; Dorest, Uk) supplemented with 10% fetal bovine serum (FBS; Bio-Whittaker, Berkshire, Uk) for HepG2 and 15% FBS for Caco-2. CEM (lymphocyte) and THP-1 (monocyte) cells were purchased from European Collection of Cell Culture (ECACC; Porton Down, Uk) and grown in RPMI-1640 (Sigma; Dorest, Uk) supplemented with 10% FBS. All cell lines were incubated at 37° C. and 5% CO2 and for adherent cells (HepG2 and Caco-2) were routinely sub-cultured every 4 days when 95% confluent. Suspension cells (CEM and THP-1) were routinely sub-cultured when a density of 1×10^6 cells/ml was achieved. Cell count and viability was determined by Trypan Blue exclusion assay.
HepG2, Caco-2, THP-1, CEM and A-THP-1 cells were separately seeded at a density of 2.5×10^4/100 μl in their appropriate media into each well of a 96 well plate (Nunclon™, Denmark) and incubated for 24 hours at 37° C. and 5% CO2. […]
Prior to starting viability assays, all reagents were made fresh and in accordance to manufacturer's instructions and allowed to equilibrate to room temperature immediately before use. […] Luminescence was then measured using a Tecan Genios plate reader (Tecan; Austria).

Data set [4] deals with HIVIIIB in MT4 cells. Description: Inhibition of cultured HIV-IIIB in MT4 cells (MTT assay). The following applies: Human immunodeficiency virus 1, 120 h, 70% loaded, 5 days, read-out: IC50 (nM), Table 11. On the procedure: HIVIIIB and the human T-cell line, MT4, were supplied by the National Institute for Biological Standards and Control (NIBSC), the Centre for AIDS Reagents (CFAR: Hertfordshire, Uk). MT4 cells were grown and routinely maintained in RPMI-1640 (Sigma; Dorest, Uk) supplemented with 10% fetal bovine serum (FBS; Bio-Whittaker, Berkshire, Uk) at 37° C. and 5% CO2 and sub-cultured every 3 days. Cell counts and viability was determined by Trypan Blue exclusion using a disposable plastic haemocytometer (Labtech International Ltd, UK). HIVIIIB was propagated by passage through MT4 cells in RPMI-1640 and 10% FBS for 12 days and a subsequent multiplicity of infection (MOI) was determined by MTT assay.
MT4 cells were dispensed into 50 ml falcon tubes and centrifuged at 2000 rpm and 4° C. for 5 minutes. The supernatant was aspirated and the resulting pellet resuspended to a cell density of 1×10^5/ml in RPMI 1640 supplemented with 10% FBS and 1 ml of viral isolate (M.O.I 0.001). After further centrifugation for 5 minutes at 2000 rpm, the MT4/HIVIIIB pellet was incubated at 37° C. and 5% CO2 for 2 hours. […]
Following incubation for 5 days of MT4/HIVIIIB with nano formulated EFV at 37° C. and 5% CO2. […] Absorbance was read at 570 nm on a plate reader (Tecan Magellan, Austria).
(In general: Tetrazolium dyes change colour on reduction, which living cells bring about.)

Consider `O=C1Nc2ccc(Cl)cc2[C@@](C#CC2CC2)(C(F)(F)F)O1` [Aqueous solution, efavirenz], for which the IC50 at 24 h in data set [1] amounted to 29 µM; in data set [2], 29 µM; in data set [3] (CEM (lymphocyte) cells) it was 40 µM; in data set [3] (HepG2 (hepatic) cells), 33 µM. Further, the IC50 in data set [4] came out at 71 nM.

Usually IC50 stands for the point on the concentration scale where inhibition reaches its midpoint.
